Test results from BigSolDB 2.1.

O=C1c2ccccc2C(=O)c2c(Cl)cccc21
solubility (mole fraction)
Conditions | 273.15 K | 278.15 K | 283.15 K | 288.15 K | 293.15 K | 298.15 K | 303.15 K | 308.15 K | 313.15 K
in 1,4-dioxane | 0.00323 | 0.00373 | 0.00412 | 0.00469 | 0.00547 | 0.00607 | 0.00691 | 0.00775 | 0.00896
in acetone | 0.00272 | 0.00308 | 0.00336 | 0.00388 | 0.00448 | 0.00531 | 0.00611 | 0.00692 | 0.00767
in ethyl acetate | 0.00335 | 0.00387 | 0.00459 | 0.00531 | 0.00605 | 0.0069 | 0.00795 | 0.00913 | 0.0106
in toluene | 0.00918 | 0.01 | 0.0112 | 0.0122 | 0.0132 | 0.0146 | 0.016 | 0.0175 | 0.019

O=C(O)c1cccc(Cl)c1C(=O)c1ccccc1
solubility (mole fraction)
Conditions | 273.15 K | 278.15 K | 283.15 K | 288.15 K | 293.15 K | 298.15 K | 303.15 K | 308.15 K | 313.15 K | 318.15 K
in 1,4-dioxane | 0.0192 | 0.021 | 0.0231 | 0.0254 | 0.0281 | 0.0309 | 0.034 | 0.0373 | 0.0413 | 0.0462
in acetone | 0.00169 | 0.00183 | 0.00204 | 0.00225 | 0.00258 | 0.00281 | 0.00308 | 0.00349 | 0.00385 | 0.00432
in ethyl acetate | 0.00545 | 0.00599 | 0.00692 | 0.00811 | 0.00959 | 0.011 | 0.0128 | 0.0146 | 0.0172 | 0.0197
